Converted amounts (≈) assume the structure as drawn. Read-outs that look alike come from different tables or passages of the source. Square brackets hold non-standard residues; d marks the D form. Peptide text beside a SMILES is read from it. * marks the point of attachment. dTrp(5-OMe) = COc1ccc2[nH]cc(C[C@@H](N)C(=O)O)c2c1; Decanoyl = CCCCCCCCCC(=O)*; Hexanoyl = CCCCCC(=O)*
Assays:
[1] = tested on: VRE (E. faecalis) ATCC 51575; format: cell-based, Enterococcus faecalis
Experimental: (§1) The minimum growth inhibitory concentrations of the antibacterial peptides of the present invention weremeasured, and the results are shown in Table 3 below.
(§2) Specifically, the strains were grown in CAMHB until the midlog phase, and then diluted with PBS buffer to 1× 10^6 cfu/ml to prepare the bacterial solution, and the antibacterial peptide prepared in Example 1above was diluted with CAMHB to 80 µM, 40 µM, 20 µM, 10 µM, 5 µM, 2.5 µM, 1.25 µM and 0.63 µM, and then the bacterial solution was treated with the same volume.
(§3) The results are the average value of three independent experiments.

[2] = tested on: MRSA (S. aureus) KCCM 40510; format: cell-based, Staphylococcus aureus; details: KCCM 40510, 18 h
Experimental: as §1, §2, §3

[3] = tested on: MRAB (A. baumannii) ATCC BAA 1605; format: cell-based, Acinetobacter baumannii
Experimental: as §1, §2, §3

[4] = tested on: MRPA (P. aeruginosa) CCARM 2180; format: cell-based, Pseudomonas aeruginosa
Experimental: as §1, §2, §3

[5] = CAMHB, 37° C., 18 hours, average of three experiments

Row | MIC VRE (E. faecalis) ATCC 51575 ([1]; ATCC 51575, 18 h) [µM] | MIC MRSA (S. aureus) KCCM 40510 [2] [µM] | MIC MRAB (A. baumannii) ATCC BAA 1605 ([3]; ATCC BAA 1605, 18 h) [µM] | MIC MRPA (P. aeruginosa) CCARM 2180 ([4]; CCARM 2180, 18 h) [µM] | Structure (SMILES) | MIC VRE (E. faecalis) ATCC 51575 [1, 5] [µM] | MIC MRAB (A. baumannii) ATCC BAA 1605 [3, 5] [µM] | MIC MRPA (P. aeruginosa) CCARM 2180 [4, 5] [µM]
1 | 5 (≈ 8.18 µg/mL) | 5 (≈ 8.18 µg/mL) | >40 | >40 | CCCCCCCCCC(=O)NCCCC[C@@H](NC(=O)[C@@H](CCCCN)NC(=O)[C@@H](CCCNC(=N)N)NC(=O)[C@@H](CC(C)C)NC(=O)[C@@H](C)NC(=O)[C@H](NC(=O)[C@@H](Cc1c[nH]c2ccccc12)NC(=O)[C@@H](CC(C)C)NC(=O)[C@@H](CC(C)C)NC(=O)[C@H](N)Cc1c[nH]c2ccccc12)[C@H](C)CC)C(=O)N[C@H](CCCNC(=N)N)C(N)=O [KSH4, wllwialrkkr] (H-[dW][dL][dL][dW][dI][dA][dL][dR][dK][dK](Decanoyl)[dR]-NH2; N-terminus assumed) | – | – | –
2 | 10 (≈ 14.8 µg/mL) | 10 (≈ 14.8 µg/mL) | >40 | >40 | CCCCCCCCCC(=O)NCCCC[C@@H](NC(=O)[C@@H](CCCCN)NC(=O)[C@@H](CCCNC(=N)N)NC(=O)[C@@H](CC(C)C)NC(=O)[C@@H](C)NC(=O)[C@H](NC(=O)[C@@H](Cc1c[nH]c2ccccc12)NC(=O)[C@@H](CC(C)C)NC(=O)[C@@H](CC(C)C)NC(=O)[C@H](N)Cc1c[nH]c2ccccc12)[C@H](C)CC)C(N)=O [KSH7, wllwialrkk] (H-[dW][dL][dL][dW][dI][dA][dL][dR][dK][dK](Decanoyl)-NH2; N-terminus assumed) | – | – | –
3 | – | – | – | 40 (≈ 52.5 µg/mL) | CC[C@@H](C)[C@@H](NC(=O)[C@@H](Cc1c[nH]c2ccccc12)NC(=O)[C@@H](CC(C)C)NC(=O)[C@@H](CC(C)C)NC(=O)[C@H](N)Cc1c[nH]c2ccccc12)C(=O)NCC(=O)N[C@H](CC(C)C)C(=O)N[C@H](CCCNC(=N)N)C(=O)N[C@H](CCCCN)C(=O)N[C@H](CCCCN)C(N)=O [KSH8, wllwiglrkk] (H-[dW][dL][dL][dW][dI]G[dL][dR][dK][dK]-NH2; N-terminus assumed) | – | – | –
4 | 1.25 (≈ 2.12 µg/mL) | 1.25 (≈ 2.12 µg/mL) | 5 (≈ 8.47 µg/mL) | 10 (≈ 16.9 µg/mL) | CCCCCC(=O)NCCCC[C@@H](N)C(=O)N[C@H](Cc1c[nH]c2ccccc12)C(=O)N[C@H](CC(C)C)C(=O)N[C@H](CC(C)C)C(=O)N[C@H](Cc1c[nH]c2ccccc12)C(=O)N[C@@H](C(=O)NCC(=O)N[C@H](CC(C)C)C(=O)N[C@H](CCCNC(=N)N)C(=O)N[C@H](CCCCN)C(=O)N[C@H](CCCCN)C(=O)N[C@H](CCCNC(=N)N)C(N)=O)[C@H](C)CC [KSH9, kwllwiglrkkr] (H-[dK](Hexanoyl)[dW][dL][dL][dW][dI]G[dL][dR][dK][dK][dR]-NH2; N-terminus assumed) | – | – | –
5 | 5 (≈ 8.75 µg/mL) | 5 (≈ 8.75 µg/mL) | >20 | >20 | CCCCCCCCCC(=O)NCCCC[C@@H](N)C(=O)N[C@H](Cc1c[nH]c2ccccc12)C(=O)N[C@H](CC(C)C)C(=O)N[C@H](CC(C)C)C(=O)N[C@H](Cc1c[nH]c2ccccc12)C(=O)N[C@@H](C(=O)NCC(=O)N[C@H](CC(C)C)C(=O)N[C@H](CCCNC(=N)N)C(=O)N[C@H](CCCCN)C(=O)N[C@H](CCCCN)C(=O)N[C@H](CCCNC(=N)N)C(N)=O)[C@H](C)CC [KSH10, kwllwiglrkkr] (H-[dK](Decanoyl)[dW][dL][dL][dW][dI]G[dL][dR][dK][dK][dR]-NH2; N-terminus assumed) | – | – | –
6 | – | – | – | >40 | CC[C@@H](C)[C@@H](NC(=O)[C@@H](Cc1c[nH]c2ccccc12)NC(=O)[C@@H](CC(C)C)NC(=O)[C@H](N)CC(C)C)C(=O)N[C@H](C)C(=O)N[C@H](CC(C)C)C(=O)N[C@H](CCCCN)C(=O)N[C@H](CCCCN)C(=O)N[C@H](CCCCN)C(=O)N[C@H](CCCCN)C(N)=O [KSH12, llwialkkkk] (H-[dL][dL][dW][dI][dA][dL][dK][dK][dK][dK]-NH2; N-terminus assumed) | – | – | –
7 | 40 (≈ 51.3 µg/mL) | 40 (≈ 51.3 µg/mL) | – | >40 | CC[C@@H](C)[C@@H](NC(=O)[C@@H](Cc1c[nH]c2ccccc12)NC(=O)[C@@H](CC(C)C)NC(=O)[C@H](N)CC(C)C)C(=O)NCC(=O)N[C@H](CC(C)C)C(=O)N[C@H](CCCNC(=N)N)C(=O)N[C@H](CCCCN)C(=O)N[C@H](CCCCN)C(=O)N[C@H](CCCNC(=N)N)C(N)=O [KSH13, llwiglrkkr] (H-[dL][dL][dW][dI]G[dL][dR][dK][dK][dR]-NH2; N-terminus assumed) | – | – | –
8 | 2.5 (≈ 3.74 µg/mL) | 1.25 (≈ 1.87 µg/mL) | 1.25 (≈ 1.87 µg/mL) | 10 (≈ 15 µg/mL) | CC[C@@H](C)[C@@H](NC(=O)[C@@H](Cc1c[nH]c2ccccc12)NC(=O)[C@@H](CC(C)C)NC(=O)[C@@H](CC(C)C)NC(=O)[C@H](N)Cc1c[nH]c2ccc(OC)cc12)C(=O)NCC(=O)N[C@H](CC(C)C)C(=O)N[C@H](CCCNC(=N)N)C(=O)N[C@H](CCCCN)C(=O)N[C@H](CCCCN)C(=O)N[C@H](CCCNC(=N)N)C(N)=O [KSH15, wMllwiglrkkr] (H-[dTrp(5-OMe)][dL][dL][dW][dI]G[dL][dR][dK][dK][dR]-NH2; N-terminus assumed) | – | – | –
9 | >40 | >40 | – | >40 | CC[C@@H](C)[C@@H](NC(=O)[C@@H](Cc1c[nH]c2ccccc12)NC(=O)[C@@H](C)NC(=O)[C@@H](C)NC(=O)[C@H](N)Cc1c[nH]c2ccccc12)C(=O)NCC(=O)N[C@H](CC(C)C)C(=O)N[C@H](CCCNC(=N)N)C(=O)N[C@H](CCCCN)C(=O)N[C@H](CCCCN)C(=O)N[C@H](CCCNC(=N)N)C(N)=O [KSH20, waawiglrkkr] (H-[dW][dA][dA][dW][dI]G[dL][dR][dK][dK][dR]-NH2; N-terminus assumed) | – | – | –
10 | – | – | – | >40 | CC(C)C[C@@H](NC(=O)[C@H](N)Cc1c[nH]c2ccccc12)C(=O)N[C@@H](C(=O)N[C@H](Cc1c[nH]c2ccccc12)C(=O)N[C@H](CO)C(=O)N[C@H](Cc1c[nH]c2ccccc12)C(=O)N[C@H](CCCNC(=N)N)C(=O)N[C@H](CCCNC(=N)N)C(=O)N[C@H](CCCNC(=N)N)C(N)=O)C(C)C [KSH39, wlvwswrrr] (H-[dW][dL][dV][dW][dS][dW][dR][dR][dR]-NH2; N-terminus assumed) | – | – | –
11 | – | – | – | – | CC[C@H](C)[C@H](NC(=O)CN)C(=O)NCC(=O)N[C@@H](C)C(=O)N[C@H](C(=O)N[C@@H](CC(C)C)C(=O)N[C@@H](CCCCN)C(=O)N[C@H](C(=O)N[C@@H](CC(C)C)C(=O)N[C@H](C(=O)N[C@H](C(=O)NCC(=O)N[C@@H](CC(C)C)C(=O)N1CCC[C@H]1C(=O)N[C@@H](C)C(=O)N[C@@H](CC(C)C)C(=O)N[C@H](C(=O)N[C@@H](CO)C(=O)N[C@@H](Cc1c[nH]c2ccccc12)C(=O)N[C@H](C(=O)N[C@@H](CCCCN)C(=O)N[C@@H](CCCNC(=N)N)C(=O)N[C@@H](CCCCN)C(=O)N[C@@H](CCCNC(=N)N)C(=O)N[C@@H](CCC(N)=O)C(=O)N[C@@H](CCC(N)=O)C(N)=O)[C@@H](C)CC)[C@@H](C)CC)[C@@H](C)O)[C@@H](C)O)C(C)C)C(C)C [Melittin, reference compound] | 1.25 (≈ 3.56 µg/mL) | 1.25 (≈ 3.56 µg/mL) | >40

Row | Structure (SMILES) | MIC VRE (E. faecalis) ATCC 51575 ([1]; ATCC 51575, 18 h) [µM] | MIC MRSA (S. aureus) KCCM 40510 [2] [µM] | MIC MRAB (A. baumannii) ATCC BAA 1605 ([3]; ATCC BAA 1605, 18 h) [µM] | MIC MRPA (P. aeruginosa) CCARM 2180 ([4]; CCARM 2180, 18 h) [µM] | MIC VRE (E. faecalis) ATCC 51575 [1, 5] [µM] | MIC MRAB (A. baumannii) ATCC BAA 1605 [3, 5] [µM] | MIC MRPA (P. aeruginosa) CCARM 2180 [4, 5] [µM]
12 | CC(C)C[C@@H](NC(=O)[C@H](N)Cc1c[nH]c2ccccc12)C(=O)N[C@@H](C(=O)N[C@H](Cc1c[nH]c2ccccc12)C(=O)N[C@H](CCCCN)C(=O)N[C@H](Cc1c[nH]c2ccccc12)C(=O)N[C@H](CCCNC(=N)N)C(=O)N[C@H](CCCNC(=N)N)C(=O)N[C@H](CCCNC(=N)N)C(N)=O)C(C)C [KSH37, wlvwkwrrr] (H-[dW][dL][dV][dW][dK][dW][dR][dR][dR]-NH2; N-terminus assumed) | 5 (≈ 6.92 µg/mL) | – | – | 40 (≈ 55.4 µg/mL) | – | – | –
13 | CC[C@@H](C)[C@@H](NC(=O)[C@@H](Cc1c[nH]c2ccccc12)NC(=O)[C@@H](CC(C)C)NC(=O)[C@H](N)Cc1c[nH]c2ccccc12)C(=O)N[C@H](Cc1c[nH]c2ccccc12)C(=O)N[C@H](CCCNC(=N)N)C(=O)N[C@H](CCCNC(=N)N)C(=O)N[C@H](CCCNC(=N)N)C(N)=O [KSH41, wlwiwrrr] (H-[dW][dL][dW][dI][dW][dR][dR][dR]-NH2; N-terminus assumed) | – | 2.5 (≈ 3.18 µg/mL) | – | – | – | – | –
14 | CC[C@@H](C)[C@@H](NC(=O)[C@@H](Cc1c[nH]c2ccccc12)NC(=O)[C@@H](CCCNC(=N)N)NC(=O)[C@@H](CCCNC(=N)N)NC(=O)[C@H](N)CCCNC(=N)N)C(=O)N[C@H](Cc1c[nH]c2ccccc12)C(=O)N[C@@H](C(=O)N[C@@H](C(=O)N[C@H](Cc1c[nH]c2ccccc12)C(N)=O)[C@H](C)CC)[C@H](C)CC [KSH60, rrrwiwiiw] (H-[dR][dR][dR][dW][dI][dW][dI][dI][dW]-NH2; N-terminus assumed) | 0.63 (≈ 0.872 µg/mL) | – | – | – | – | – | –
15 | CC[C@@H](C)[C@@H](NC(=O)[C@H](N)Cc1c[nH]c2ccccc12)C(=O)N[C@@H](C(=O)N[C@H](Cc1c[nH]c2ccccc12)C(=O)N[C@@H](C(=O)N[C@H](Cc1c[nH]c2ccccc12)C(=O)N[C@H](CCCNC(=N)N)C(=O)N[C@H](CCCNC(=N)N)C(=O)N[C@H](CCCNC(=N)N)C(N)=O)[C@H](C)CC)[C@H](C)CC [KSH61, wiiwiwrrr] (H-[dW][dI][dI][dW][dI][dW][dR][dR][dR]-NH2; N-terminus assumed) | 0.63 (≈ 0.872 µg/mL) | – | – | – | – | – | –

— patent US20230287044A1, “NOVEL ANTIBACTERIAL PEPTIDE AND USE THEREOF” (priority 2020, published 2023)
